# Assay results from publication PMC5676206, “Biosynthesis of methyl-proline containing griselimycins, natural products with anti-tuberculosis activity” (Chemical Science, 2017).
# Assays:
# [1] = biological target: T1, GriE (Streptomyces muensis, UniProt A0A0E3URV8); test: X-ray crystallography; format: binding
# T1 construct: recombinant, produced in E. coli
# T1 sequence (A0A0E3URV8 1-270): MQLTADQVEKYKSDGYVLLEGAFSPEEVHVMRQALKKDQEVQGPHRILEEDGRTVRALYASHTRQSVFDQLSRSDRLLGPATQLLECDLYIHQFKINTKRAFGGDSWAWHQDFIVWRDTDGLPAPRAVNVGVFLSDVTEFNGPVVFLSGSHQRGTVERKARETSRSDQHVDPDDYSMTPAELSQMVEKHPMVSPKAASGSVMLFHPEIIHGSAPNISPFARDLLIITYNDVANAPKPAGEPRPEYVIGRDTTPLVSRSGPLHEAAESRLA
# [2] = biological target: T2, GriF (Streptomyces muensis, UniProt A0A0E3URI1); test: LC-MS of product; format: biochemical; conditions: NAD+, ZnSO4; product cyclizes to the pyrroline
# T2 construct: recombinant, produced in E. coli
# T2 sequence (A0A0E3URI1 1-391): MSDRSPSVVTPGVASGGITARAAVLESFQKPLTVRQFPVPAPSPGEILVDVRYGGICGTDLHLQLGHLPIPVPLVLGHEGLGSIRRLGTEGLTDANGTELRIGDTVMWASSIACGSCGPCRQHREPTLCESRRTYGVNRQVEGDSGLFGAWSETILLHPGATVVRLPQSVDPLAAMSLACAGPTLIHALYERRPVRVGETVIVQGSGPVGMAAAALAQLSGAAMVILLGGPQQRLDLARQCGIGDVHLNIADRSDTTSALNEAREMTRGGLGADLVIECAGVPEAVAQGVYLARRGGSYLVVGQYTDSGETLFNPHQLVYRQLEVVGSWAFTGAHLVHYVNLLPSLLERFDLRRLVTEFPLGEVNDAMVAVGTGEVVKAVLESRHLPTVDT
# [3] = co-crystallized with Mn2+, L-leucine and alpha-ketoglutarate, turned over in the crystal set-up, 1.53 Å
smiles,measurement,setting,value
O=C(O)CCC(=O)O [succinate],X-ray crystallography,[1]; [3],succinate coordinates the metal with one carboxylate oxygen
CC(C)C[C@H](N)C(=O)O [L-leucine],X-ray crystallography,"[1]; co-crystallized with Co2+ in place of Fe2+ and alpha-ketoglutarate, 1.76 Å, active site, no direct metal contact",unambiguously revealed bound metal and both L-leucine and α-ketoglutarate
"C[C@@H](CO)C[C@H](N)C(=O)O [(2S,4R)-5-hydroxyleucine]",X-ray crystallography,[1]; [3],"electron density clearly confirms 5-hydroxyleucine to be the postulated (2S,4R)-diastereomer"
same,LC-MS of product,[2],"incubation of recombinant GriF with 5-hydroxyleucine, ZnSO4 and NAD^+ was unstable"
